Consider 1 molecule from US12344614B2, “Benzodiazepine derivatives as GABA a GAMMA1 PAM” (Hoffmann-La Roche Inc., priority 2021, dated 2025).

For assay [1], the target named is human GABAA α5β2γ1 receptor (Homo sapiens (Human), UniProt P31644+Q8N1C3). The experiment in a line: Radioligand binding assay, competition for [3H]RO7239181, membranes from HEK293F cells. The conditions noted are these: read-out: Ki h-GABAA α5β2γ1; [3H]RO7239181 […], HEK293F membranes, 1 hour at 4° C., mean of two determinations. How it is done: The affinity of compounds at GABAA γ1 subunit-containing receptors was measured by competition for [^3H]RO7239181 (67.3 Ci/mmol; Roche) binding to membranes from HEK293F cells (ThermoFisher R79007) expressing human (transiently transfected) receptors of composition α5β2γ1, α2β2γ1, α1β2γ1. For better protein expression of the α2 subunit-containing receptors, the 28 amino acid long signal peptide (Met1 to Ala28) of the human GABAA α2 subunit was substituted by the 31 amino acid long signal peptide (Met1 to Ser31) of human GABAA α5 subunit.
(§1) Harvested pellets from HEK293F cells expressing the different GABAA receptor subtypes were resuspended in Mannitol Buffer pH 7.2-7.4 (Mannitol 0.29M, Triethylamine 10 mM, Acetic acid 10 mM, EDTA 1 mM plus protease inhibitors (20 tablets Complete, Roche Diagnostics Cat. No. 05 056 489 001 per liter)), washed two times and then resuspended at 1:10 to 1:15 dilution in the same buffer. Cell disruption was performed by stirring the suspension in a Parr vessel #4637 at 435 psi for 15 minutes, and then the suspensions were centrifuged at 1000×g for 15 minutes at 4° C. (Beckman Avanti J-HC; rotor JS-4.2). The supernatant (S1) was transferred in a 21 Schott flask and the pellet (P1) was resuspended with Mannitol Buffer up to 175 ml. The resuspended pellet was transferred into a 250 ml Corning centrifugal beaker and centrifuged at 1500×g for 10 minutes at 4° C. (Beckman Avanti J-HC; rotor JS-4.2). The supernatant (S1) was then transferred in the 21 Schott flask and the pellet was discarded. The supernatants (S1) were centrifuged in 500 ml Beckman polypropylene centrifugal beaker at 15′000×g for 30 minutes at 4° C. (Beckman Avanti J-20 XP; rotor JLA-10.500). The pellet (P2) was resuspended with Mannitol Buffer 1:1 and frozen at −80° C. The supernatant (S2) was centrifuged in 100 ml Beckman polypropylene centrifugal tubes at 48000×g for 50 minutes at 4° C. (Beckman Avanti J-20 XP; rotor JA-18). The supernatant (S3) was discarded and the pellet (P3) was resuspended with 1:1 Mannitol Buffer. The P2 and P3 protein concentration was determined with the BIORAD Standard assay method with bovine serum albumin as standard and measured on the NANO-Drop 1000. The membrane suspension was aliquots (500 μl per tube) and stored at −80° C. until required.
(§2) Membrane homogenates were resuspended and polytronised (Polytron PT1200E Kinematica AG) in Potassium Phosphate 10 mM, KCl 100 mM binding buffer at pH 7.4 to a final assay concentration determined with a previous experiment.
Radioligand binding assays were carried out in a volume of 200 μL (96-well plates) which contained 100 μL of cell membranes, [^3H]RO7239181 at a concentration of 1.5 nM (α5β2γ1) or 20-30 nM (α1β2γ1, α2β2γ1) and the test compound in the range of [0.3-10000]×10^−9 M. Nonspecific binding was defined by 10×10^−6 (α5β2γ1) and 30×10^−6 M RO7239181 and typically represented less than 5% (α5β2γ1) and less than 20% (α1β2γ1, α2β2γ1) of the total binding. Assays were incubated to equilibrium for 1 hour at 4° C. and then, membranes were filtered onto unifilter (96-well white microplate with bonded GF/C filters preincubated 20-50 minutes in 0.3% Polyethylenimine) with a Filtermate 196 harvester (Packard BioScience) and washed 4 times with cold Potassium Phosphate 10 mM pH 7.4, KCl 100 mM binding buffer. After anhydrousing, filter-retained radioactivity was detected by liquid scintillation counting. Ki values were calculated using Excel-Fit (Microsoft) and are the means of two determinations.
Representative test results, obtained by the above described assay measuring binding affinity to HEK293 cells expressing human (h) receptors, are shown in the Table 1.

The target of assay [2] is human GABAA α2β2γ1 receptor (Homo sapiens (Human), UniProt P47869+Q8N1C3). The assay is described as above. The method, then:
The affinity of compounds at GABAA γ1 subunit-containing receptors was measured by competition for [^3H]RO7239181 (67.3 Ci/mmol; Roche) binding to membranes from HEK293F cells (ThermoFisher R79007) expressing human (transiently transfected) receptors of composition α5β2γ1, α2β2γ1, α1β2γ1.
as §1, §2
Assays were incubated to equilibrium for 1 hour at 4° C. and then, membranes were filtered onto unifilter (96-well white microplate with bonded GF/C filters preincubated 20-50 minutes in 0.3% Polyethylenimine) with a Filtermate 196 harvester (Packard BioScience) and washed 4 times with cold Potassium Phosphate 10 mM pH 7.4, KCl 100 mM binding buffer. After anhydrousing, filter-retained radioactivity was detected by liquid scintillation counting. Ki values were calculated using Excel-Fit (Microsoft) and are the means of two determinations.

The target in assay [3] is human GABAA α1β3γ2 receptor (Homo sapiens (Human), UniProt P14867+P18507). The experiment in a line: Radioligand binding assay, competition for [3H]Flumazenil, HEK293F cells. The conditions noted are these: read-out: Ki h-GABAA α1β3γ2; [3H]Flumazenil 1 nM, HEK293F membranes, 1 hour at 4° C., mean of two determinations. The method, then: The affinity of compounds at GABAA γ2 subunit-containing receptors was measured by competition for [^3H]Flumazenil (81.1 Ci/mmol; Roche) binding to HEK293F cells expressing human (transiently transfected) receptors of composition α1β3γ2.
Harvested pellets from HEK293F cells expressing the different GABAA γ2 receptor subtypes were resuspended in Mannitol Buffer pH 7.2-7.4 and processed as described above for the cells expressing the GABAA γ1 subunit-containing receptors.
Assays were incubated to equilibrium for 1 hour at 4° C. and harvested onto GF/C uni-filters (Packard) by filtration using a Packard harvester and washing with ice-cold wash buffer (50 mM Tris; pH 7.5). After anhydrousing, filter-retained radioactivity was detected by liquid scintillation counting. Ki values were calculated using Excel-Fit (Microsoft) and are the means of two determinations.

The target of assay [4] is h-GABA-A α2β2γ1 receptor (Homo sapiens (Human), UniProt P47869+Q8N1C3). Description: Two-electrode voltage clamp electrophysiology in Xenopus oocytes expressing GABAA receptors. It counts as cell-based. Particulars: % modulation of GABA EC20 = 100*(Fold increase−1), compound at 30-fold Ki α2β2γ1. The method, then: Xenopus laevis oocytes at maturation stages V-VI were used for the expression of cloned mRNA encoding GABAA receptor subunits. Oocytes ready for RNA micro-injection were bought from Ecocyte, Castrop-Rauxel, Germany and stored in modified Barth's medium (composition in mM: NaCl 88, KCl 1, NaHCO3 2.4, HEPES 10, MgSO4 0.82, CaNO3 0.33, CaCl2 0.33, pH=7.5) at 20° C. until the experiment.
Oocytes were plated in 96-well plates for microinjection using the Roboinject automated instrument (MultiChannelSystems, Reutlingen, Germany). Approximately 50 nL of an aqueous solution containing the RNA transcripts for the subunits of the desired GABAA receptor subtype was injected into each oocyte. […] Oocytes were kept in modified Barth's medium (composition in mM: NaCl 88, KCl 1, NaHCO3 4, HEPES 10, MgSO4 0.82, CaNO3 0.33, CaCl, 0.33, pH=7.5) at 20° C. until the experiment.
Electrophysiological experiments were performed using the Roboocyte instrument (MultiChannelSystems, Reutlingen, Germany) on days 3 to 5 after the micro-injection of mRNA. During the experiment the oocytes were constantly superfused by a solution containing (in mM) NaCl 90, KCl 1, HEPES 5, MgCl2 1, CaCl2 1 (pH 7.4). Oocytes were impaled by two glass microelectrodes (resistance: 0.5-0.8 MΩ) which were filled with a solution containing KCl 1M+K-acetate 1.5 M and voltage-clamped to −80 mV. The recordings were performed at room temperature using the Roboocyte two-electrode voltage clamp system (Multichannelsystem). After an initial equilibration period of 1.5 min GABA was added for 1.5 min at a concentration evoking approximately 20% of a maximal current response (EC2O). After another rest interval of 2.5 min GABA was again added evoking a response of similar amplitude and shape. […] Current traces were recorded at a digitization rate of 10 Hz during and shortly before and after the GABA application.
Each compound and concentration was tested on at least 3 oocytes. Different oocytes were used for different compound concentrations.
For the analysis, the digitized current traces of the first and second GABA response were superimposed and, if necessary, rescaled to equal maximal amplitudes. The ratio between the two responses during the time interval of test compound application was calculated point by point. The extremum of the resulting “ratio trace” was taken as the efficacy (“Fold increase”) of the compound expressed as “% modulation of GABA EC20” (100*(Fold increase−1)).

Structures are written as SMILES.

In the case of `C[C@@H]1N=C(c2nc(O)ccc2F)c2c(ccc(C(F)(F)F)c2Cl)-n2nc(C(=O)N3CC(F)C3)nc21` [Example 21, [(4S)-7-chloro-6-(3-fluoro-6-hydroxy-2-pyridyl)-4-methyl-8-(trifluoromethyl)-4H-[1,2,4]triazolo[1,5-a][1,4]benzodiazepin-2-yl]-(3-fluoroazetidin-1-yl)methanone], the figures for the Ki in assay [1], in assay [2] and in assay [3] were 5.51 nM, 11.8 nM and above 30000 nM, respectively. Also, the “Efficacy (GABA) %” value in assay [4] was 73%.

What is called Ki is a measure of affinity in units of concentration, obtained from inhibition or displacement.
